Experimental data taken from patent publication EP2003118A1, “Cinnamic acid derivatives as modulators of EP2 receptors” (Bayer Schering Pharma Aktiengesellschaft, priority 2007, dated 2008).

Tests used:
[1] = target: T1, EP2-Subtyp des humanen PGE2-Rezeptors (Homo sapiens, UniProt P43116); assay: cAMP antagonism test (HTRF cAMP, in presence of PGE2); assay type: cell-based; details: cAMP Antagonismustest, PGE2 as agonist; read-out: Antagonismus [IC50
T1 construct: host or cells: cells in a culture plate
T1 sequence (P43116 whole entry): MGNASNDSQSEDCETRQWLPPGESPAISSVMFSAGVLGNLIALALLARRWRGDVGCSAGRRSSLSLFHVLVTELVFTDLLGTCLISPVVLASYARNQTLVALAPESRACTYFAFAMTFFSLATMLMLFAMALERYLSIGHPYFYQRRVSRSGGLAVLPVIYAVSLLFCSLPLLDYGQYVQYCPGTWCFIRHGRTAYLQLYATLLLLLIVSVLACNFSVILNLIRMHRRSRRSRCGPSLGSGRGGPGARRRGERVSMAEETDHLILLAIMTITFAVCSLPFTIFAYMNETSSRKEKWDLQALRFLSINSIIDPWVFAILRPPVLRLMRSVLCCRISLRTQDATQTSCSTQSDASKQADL
Excerpt: Die Bindung von PGE2 an den EP2-Subtyp des humanen PGE2-Rezeptors induziert die Aktivierung membranständiger Adenylatzyklasen und führt zur Bildung von cAMP. In Gegenwart des Phosphodiesteraseinhibitors IBMX wird das durch diese Stimulation akkumulierte und mittels Zell-Lyse freigesetzte cAMP in einem kompetitiven Nachweisverfahren eingesetzt. In diesem Test konkurriert das cAMP im Lysat mit cAMP-XL665 um die Bindung eines Eu-Kryptat markierten Anti-cAMP Antikörpers.
Dabei entsteht in Abwesenheit von zellulärem cAMP ein maximales Signal, welches auf der Kopplung dieses Antikörpers an das cAMP-XL665 Molekül beruht. Dadurch entsteht nach Anregung bei 337 nm ein auf FRET (fluorescence resonance energy transfer) basierendes, lang anhaltendes Emissionssignal bei 665 nm (und bei […]). Beide Signale werden in einem geeigneten Messgerät zeitlich versetzt, d.h. nach Abklingen der Hintergrundsfluoreszenz gemessen. Jegliche Erhöhung des durch Prostglandin-E2-Gabe bedingten niedrigen FRET-Signals (gemessen als Well-Ratio-Veränderung = Emission665nm/Emission620nm * 10000) zeigt die Wirkung von Antagonisten.
Die in einer Testplatte und 30 % DMSO vorgelegten Substanzlösungen (0.75 µl) werden in 16 µl einer KRSB+IBMX-Stimulationslösung gelöst (1 X Krebs-Ringer Bicarbonate Buffer; Sigma-Aldrich # K-4002; inklusive 750 µM 3-Isobutyl-1-methylxanthine Sigma-Aldrich # 1-7018), anschließend werden 15 µl davon in eine medienfreie Zellkulturplatte überführt, die kurz zuvor mit KRSB gewaschen worden war.
Nach einer 30-minütigen Vorinkubation bei Raumtemperatur (RT) werden 5 µl einer 4xPGE2 Lösung (11 nM) zugegeben und in Gegenwart des Agonisten für weitere 60 min bei RT inkubiert (Volumen: ~ 20 µl), bevor die Reaktion anschlieβend durch Zugabe von 5 µl Lysispuffer gestoppt und für weitere 20 min bei RT inkubiert wird (Volumen: ~ 25 µl). Das Zell-Lysat wird anschließend in eine Messplatte überführt und entsprechend den Herstellerangaben (cyclic AMP kit Cisbio International # 62AMPPEC) gemessen.

Kumulus-Eizell Komplexe = assay: cumulus expansion test in vitro; assay type: cell-based, Mäusen; details: competing with PGE2
Excerpt: In immaturen weiblichen Mäusen (Stamm : CD1 (ICR) von Charles River) wird in einem Alter von 14 - 18 Tagen die Follikulogenese durch eine einmalige Gabe (intraperitoneal) von 10 I.E. PMSG (Pregnant Mare Serum Gonadotropine; Sigma G-4877, Lot 68H0909) induziert. 47 - 50 Stunden nach der Injektion werden die Ovarien entnommen und die Kumulus-Eizell Komplexe entnommen. Der Kumulus Komplex ist in diesem Stadium noch nicht expandiert. Die Kumulus-Eizell Komplexe werden nun für 20 - 24 Stunden mit Prostaglandin E2 (PGE2) (0,3 µM), Vehikel Kontrolle (Ethanol) oder Testsubstanzen inkubiert. Medium: alpha- MEM Medium mit 0,1 mM IBMX, Pyruvate (0,23 mM) Glutamine (2 mM), Pen/Strep 100 IU/ml Pen. und 100 µg/ml Strep.) und HSA (8 mg/ml)). Danach wird die Kumulus Expansion durch die Einteilung in vier Stadien (nach Vanderhyden et al. Dev Biol. 1990 Aug; 140(2):307-317) festgestellt. Tabelle 1: Beispiel für die biologische Wirksamkeit der erfindungsgemäßen Verbindungen (gemessen mittels cAMP Antagonismustest): […]

[2] = target: T1, EP2-Subtyp des humanen PGE2-Rezeptors; assay: cellular cAMP agonism test; assay type: cell-based

| SMILES | IC50 [1] [nM] | other results |
| --- | --- | --- |
| Cc1[nH]c2c(F)ccc(C)c2c1CCNC(=O)C=Cc1ccncc1 (mixture of isomers) [Beispiel 2, (E/Z)-N-[2-(7-Fluor-2,4-dimethyl-1H-indol-3-yl)-ethyl]-3-pyridin-4-yl-acrylamid] | 1500 | – |
| CC(C)Oc1ccc2c(=O)c3cc(C(=O)O)ccc3oc2c1 [AH 6809, reference compound] | – | Unterdrückung der Kumulus Expansion (Kumulus-Eizell Komplexe; 100 - 200 µM): ca. 30% |
| Cc1[nH]c2c(F)ccc(C)c2c1CCNC(=O)/C=C/c1ccc2c(c1)OCO2 [Beispiel 1, (E)-3-Benzo[1,3]dioxol-5-yl-N-[2-(7-fluor-2,4-dimethyl-1H-indol-3-yl)-ethyl]-acrylamid] | – | Unterdrückung der Kumulus Expansion (Kumulus-Eizell Komplexe; at a 10-fold lower concentration than AH 6809 (100 - 200 µM)): 61% |
| Cc1[nH]c2c(F)ccc(C)c2c1CCNC(=O)/C=C/c1ccc(OCCN(C)C)cc1 [Beispiel 18, (E)-3-[4-(2-Dimethylamino-ethoxy)-phenyl]-N-[2-(7-fluor-2,4-dimethyl-1H-indol-3-yl)-ethyl]-acrylamid] | 2200 | – |
| Cc1[nH]c2c(F)ccc(C)c2c1CCNC(=O)/C=C/c1cccc(S(N)(=O)=O)c1 [Beispiel 36, (E)-N-[2-(7-Fluor-2,4-dimethyl-1H-indol-3-yl)-ethyl]-3-(3-sulfamoyl-phenyl)-acrylamid] | 1000 | Wirkung im zellulären Agonismustest [2]: keine Inhibition |
| Cc1[nH]c2c(F)ccc(C)c2c1CCNC(=O)/C=C/c1cncc2ccccc12 [Beispiel 47, (E)-N-[2-(7-Fluor-2,4-dimethyl-1H-indol-3-yl)-ethyl]-3-isochinolin-4-yl-acrylamid] | 1500 | – |
